Assay results from article PMC7024211, “Antifouling Napyradiomycins from Marine-Derived Actinomycetes Streptomyces aculeolatus” (Marine Drugs, 2020).
≈ marks a conversion by molar mass, not a printed value.

Key:
[1] = Mussel plantigrade larvae settlement, 15 h acute exposure assay; format: in vivo; details: Mytilus galloprovincialis (mussel, plantigrade larvae), in vivo, no mortality at highest tested concentration 12 µg/mL
Method: (§1) Mussel (M. galloprovincialis) adhesive larvae (plantigrades) were used to assess in vivo the antifouling activity of napyradiomycins (1–12) towards macrofouling. Juvenile mussel aggregates were collected at the intertidal rocky shore during low spring tides, at Memória beach, Matosinhos, Portugal (41°13′59″ N; 8°43′28″ W). At the laboratory, immediately before the bioassays, mussel plantigrade larvae were screened and isolated from the juvenile aggregates using a binocular microscope (Olympus SZX2-ILLT, Hamburg, Germany) and washed with filtered seawater to remove organic debris. Only competent plantigrade larvae (those showing foot exploratory behavior) were selected and used in the exposure bioassays following previously validated procedures. Plantigrades were exposed in 24-well polystyrene plates for 15 h in the darkness at 18 °C. DMSO was used as solvent for crude extracts, fractions and pure compounds stock and working solutions. Working solutions were prepared by successive dilutions of stock solutions in DMSO and then diluted in filtered seawater to obtain the test solutions. DMSO concentration in test solutions was always 0.1%. Four well replicates were used per condition with five larvae per well. Two negative controls, one with ultra-pure water and the other with DMSO 0.1% were included in all bioassays, as well as a positive control with 5 μM CuSO4 (a potent antifouling agent). Anti-settlement bioactivity was determined by the presence/absence of fixed byssal threads produced by each individual larvae for all the conditions tested. […] Chi-square Pearsons goodness-of-fit test was applied to data in order to determine EC50. Significance was considered at p < 0.01 for all analyses, and 95% lower and upper confidence limits [95% LCL; UCL] were presented. Therapeutic ratio (LC50/EC50) was used to evaluate the effectiveness vs. toxicity of compounds [19, 21].

[2] = test system: M. galloprovincialis plantigrade larvae; experiment: as above; format: in vivo; details: 95% LCL, UCL in brackets
Method: as §1

CC(C)=CCCC(C)=CCC12OC(C)(C)C(Cl)CC1(Cl)C(=O)c1c(O)cc(O)cc1C2=O (stereo not drawn) [Napyradiomycin 1, napyradiomycin A1]
LC50 at 15 h [1]: > 12 µg/mL | EC50 [Conf. limits] larval settlement [2]: 0.655 [0.300; 0.906] µg/mL | EC50 ([2]; Mytilus galloprovincialis, 15 h, read-out: EC50 [Conf. limits] larval settlement): 0.66 µg/mL (≈ 1.37 µM)
